# ChEMBL document CHEMBL1131339 (J Med Chem, 1998)
# Key:
# Melanophore [1] = assay: Inhibitory concentration against melatonin-induced pigment aggregation by 50% in Xenopus laevis dermal melanophore cell line; assay type: functional, cell-based, frog
# Melanophore [2] = assay: Effective concentration required to produce 50% of the maximal pigment aggregation in Xenopus laevis dermal melanophore cell line; No agonist effect detected at 100 uM; assay type: functional, cell-based, frog
# Melanophore [3] = assay: Effective concentration required to produce 50% of the maximal pigment aggregation in Xenopus laevis dermal melanophore cell line; assay type: functional, cell-based, frog
# Melatonin receptor = Melatonin receptor (Gallus gallus, UniProt P49288+P51050+P49285); assay: Binding affinity towards melatonin receptor, determined in chicken brain membranes using [2-125I]melatonin; assay type: cell membranes, Membrane
# Melanophore [4] = assay: Inhibitory concentration against melatonin-induced pigment aggregation by 50% in Xenopus laevis dermal melanophore cell line; Antagonism detected at 100 uM but IC50 not calculated; assay type: functional, cell-based, frog
IC50 (Melanophore [1]),EC50 (Melanophore [2]),"EC50 (Melanophore [3]; Xenopus laevis, Melanophore) [nM]",Ki (Melatonin receptor) [nM],EC50 (Melanophore [3]; melanophore) [nM],IC50 (Melanophore [4]),SMILES
64000 nM,Not Active,–,–,–,–,CC(=O)NC1CCc2[nH]c3ccccc3c2C1 (configuration not stated)
Not Active,–,423,161,–,–,COc1ccc2c(c1)c1c(n2C)CCC1CNC(C)=O (configuration not stated)
Not Active,–,25,–,–,–,CCCC(=O)NC1CCc2[nH]c3ccc(OC)cc3c2C1 (configuration not stated)
Not Active,–,–,227,599,–,CC(=O)NCC1CCCc2c1c1ccccc1n2C (stereo in doubt; 9a)
Not Active,Not Active,–,> 10000,–,–,Cn1c2c(c3ccccc31)C(CNC(=O)C(F)(F)F)CC2 (configuration not stated)
Not Active,–,128,7.66,–,–,CCC(=O)NCC1CCCc2c1c1cc(C)ccc1n2C (configuration not stated)
Not Active,–,32,–,–,–,COc1ccc2[nH]c3c(c2c1)CC(NC(=O)C(F)(F)F)CC3 (configuration not stated)
Not Active,–,0.31,1.44,–,–,CCC(=O)NCC1CCCc2c1c1cc(OC)ccc1n2C (configuration not stated)
54000 nM,Not Active,–,424,–,–,CC(=O)NCC1CCCCc2c1c1ccccc1n2C (configuration not stated)
41000 nM,Not Active,–,1240,–,–,Cn1c2c(c3cc(OC(F)(F)F)ccc31)C(CNC(=O)C1CCC1)CCC2 (configuration not stated)
33000 nM,–,1510,131.6,–,–,Cn1c2c(c3cc(Cl)ccc31)C(CNC(=O)C1CC1)CCC2 (configuration not stated)
6400 nM,Not Active,–,708,–,–,"CC(=O)NCC1CCCc2c1c1ccccc1n2C (single isomer, unassigned; (+))"
–,–,2630,239,–,Antagonist,CCCC(=O)NCC1CCc2c1c1ccccc1n2C (configuration not stated)
39000 nM,Not Active,–,–,–,–,O=C(CBr)NC1CCc2[nH]c3ccccc3c2C1 (configuration not stated)
14000 nM,–,335,23,–,–,CCCC(=O)NCC1CCc2c1c1cc(OC)ccc1n2C (configuration not stated)
Not Active,–,3270,–,–,–,CCC(=O)NC1CCc2[nH]c3ccccc3c2C1 (configuration not stated)
50000 nM,Not Active,–,5700,–,–,Cn1c2c(c3ccccc31)C(CNC(=O)C1CCC1)CC2 (configuration not stated)
53000 nM,Not Active,–,84,–,–,CCCC(=O)NCC1CCCCc2c1c1ccccc1n2C (configuration not stated)
Not Active,–,195,143,–,–,COc1ccc2[nH]c3c(c2c1)CC(NC(=O)C1CC1)CC3 (configuration not stated)
–,–,–,1.7,3.4,–,"CCC(=O)NCC1CCc2c1c1cc(OC)ccc1n2C (single isomer, unassigned; (-))"
Not Active,–,6360,516,–,–,CC(=O)NCC1CCc2c1c1ccccc1n2C (configuration not stated)
Not Active,Not Active,–,> 10000,–,–,Cn1c2c(c3ccccc31)C(CNC(=O)C(F)(F)F)CCCC2 (configuration not stated)
6000 nM,–,733,40.2,–,–,CCC(=O)NCC1CCCc2c1c1cc(OC(F)(F)F)ccc1n2C (configuration not stated)
Not Active,–,5.2,2.12,–,–,CC(=O)NCC1CCCc2c1c1cc(Cl)ccc1n2C (configuration not stated)

IC50 (Melanophore [1]),EC50 (Melanophore [2]),"EC50 (Melanophore [3]; Xenopus laevis, Melanophore) [nM]",Ki (Melatonin receptor) [nM],EC50 (Melanophore [3]; melanophore) [nM],IC50 (Melanophore [4]),SMILES
–,–,–,40,189,–,"CC(=O)NCC1CCCc2c1c1ccccc1n2C (single isomer, unassigned; (-))"
43000 nM,Not Active,–,–,–,–,O=C(NC1CCc2[nH]c3ccccc3c2C1)C(F)(F)F (configuration not stated)
Not Active,–,12600,–,–,–,CCCC(=O)NC1CCc2[nH]c3ccccc3c2C1 (configuration not stated)
Not Active,–,–,–,0.7,–,COc1ccc2c(c1)c1c(n2C)CCCC1CNC(C)=O (stereo in doubt; 9g)
11000 nM,Not Active,–,459,–,–,COc1ccc2c(c1)c1c(n2C)CCC1CNC(=O)C1CC1 (configuration not stated)
15000 nM,Not Active,–,4460,–,–,Cn1c2c(c3ccccc31)C(CNC(=O)C1CC1)CCC2 (configuration not stated)
–,–,140,10.3,–,Antagonist,CCCC(=O)NCC1CCCCc2c1c1cc(OC)ccc1n2C (configuration not stated)
14000 nM,Not Active,–,187.2,–,–,Cn1c2c(c3cc(Cl)ccc31)C(CNC(=O)C1CCC1)CCC2 (configuration not stated)
–,–,–,16,408,–,CCC(=O)NCC1CCc2c1c1cc(OC)ccc1n2C (stereo in doubt; 10i)
10000 nM,–,258,24,–,–,COc1ccc2c(c1)c1c(n2C)CCCCC1CNC(C)=O (configuration not stated)
46000 nM,Not Active,–,> 10000,–,–,CCCCC(=O)NCC1CCc2c1c1ccccc1n2C (configuration not stated)
Not Active,–,966,215,–,–,CCCC(=O)NCC1CCCc2c1c1ccccc1n2C (configuration not stated)
Not Active,–,0.23,–,–,–,COc1ccc2[nH]cc(CCNC(C)=O)c2c1 [MELATONIN]
Not Active,–,1450,555,–,–,Cc1ccc2c(c1)c1c(n2C)CCCC1CNC(=O)C1CCC1 (configuration not stated)
44000 nM,Not Active,–,1690,–,–,Cn1c2c(c3ccccc31)C(CNC(=O)C1CCC1)CCCC2 (configuration not stated)
18000 nM,Not Active,–,144.8,–,–,COc1ccc2c(c1)c1c(n2C)CCCCC1CNC(=O)C1CCC1 (configuration not stated)
–,–,–,48.4,14.8,–,"COc1ccc2c(c1)c1c(n2C)CCCC1CNC(C)=O (single isomer, unassigned; (+))"
42000 nM,Not Active,–,8300,–,–,CCCCC(=O)NCC1CCCCc2c1c1ccccc1n2C (configuration not stated)
Not Active,–,108,16.1,–,–,CC(=O)NCC1CCCc2c1c1cc(C)ccc1n2C (configuration not stated)
Not Active,Not Active,–,201.5,–,–,"CCC(=O)NCC1CCCCc2c1c1cc(OC)ccc1n2C (single isomer, unassigned; (+))"
56000 nM,Not Active,–,1220,–,–,Cn1c2c(c3ccccc31)C(CNC(=O)C1CC1)CCCC2 (configuration not stated)
Not Active,–,139,271,–,–,COc1ccc2c(c1)c1c(n2C)CCCC1CNC(=O)C1CCC1 (configuration not stated)
59000 nM,Not Active,–,5100,–,–,Cn1c2c(c3ccccc31)C(CNC(=O)C1CC1)CC2 (configuration not stated)
Not Active,–,132,82,–,–,CCCCC(=O)NCC1CCCc2c1c1cc(OC)ccc1n2C (configuration not stated)

IC50 (Melanophore [1]),EC50 (Melanophore [2]),"EC50 (Melanophore [3]; Xenopus laevis, Melanophore) [nM]",Ki (Melatonin receptor) [nM],EC50 (Melanophore [3]; melanophore) [nM],IC50 (Melanophore [4]),SMILES
–,Not Active,–,129,–,Antagonist,CCC(=O)NCC1CCCCc2c1c1ccccc1n2C (configuration not stated)
–,–,–,6.5,118,–,CCC(=O)NCC1CCCCc2c1c1cc(OC)ccc1n2C (stereo in doubt; 11i(-))
–,–,4040,272,–,Antagonist,CCC(=O)NCC1CCc2c1c1ccccc1n2C (configuration not stated)
35000 nM,Not Active,–,> 10000,–,–,Cn1c2c(c3ccccc31)C(CNC(=O)C(F)(F)F)CCC2 (configuration not stated)
Not Active,–,–,243,789,–,"CCC(=O)NCC1CCc2c1c1cc(OC)ccc1n2C (single isomer, unassigned; (+))"
Not Active,–,862,204,–,–,CCC(=O)NCC1CCCc2c1c1ccccc1n2C (configuration not stated)
Not Active,–,32,–,–,–,COc1ccc2[nH]c3c(c2c1)CC(NC(C)=O)CC3 (configuration not stated)
Not Active,–,2.1,1.98,–,–,COc1ccc2c(c1)c1c(n2C)CCCC1CNC(=O)C(F)(F)F (configuration not stated)
17000 nM,Not Active,–,> 10000,–,–,CCCCC(=O)NCC1CCCc2c1c1ccccc1n2C (configuration not stated)
Not Active,–,0.44,0.378,–,–,CCCC(=O)NCC1CCCc2c1c1cc(OC)ccc1n2C (configuration not stated)
11000 nM,–,32,–,–,–,COc1ccc2[nH]c3c(c2c1)CC(NC(=O)CBr)CC3 (configuration not stated)
Not Active,–,7,–,–,–,CCC(=O)NC1CCc2[nH]c3ccc(OC)cc3c2C1 (configuration not stated)
2100 nM,Not Active,–,1606,–,–,CC(=O)NCCc1c(Cc2ccccc2)[nH]c2ccccc12 [LUZINDOLE]
–,–,91,7,–,Antagonist,CCC(=O)NCC1CCCCc2c1c1cc(OC)ccc1n2C (stereo in doubt; 11i)
48000 nM,–,119,30,–,–,COc1ccc2c(c1)c1c(n2C)CCCC1CNC(=O)C1CC1 (configuration not stated)
3400 nM,Not Active,–,565,–,–,O=C(NCCc1c(-c2ccccc2)[nH]c2ccccc12)C1CCC1
42000 nM,–,2030,141.7,–,–,CC(=O)NCC1CCCc2c1c1cc(OC(F)(F)F)ccc1n2C (configuration not stated)
–,–,–,0.372,0.3,–,"COc1ccc2c(c1)c1c(n2C)CCCC1CNC(C)=O (single isomer, unassigned; (-))"
39000 nM,Not Active,–,471,–,–,CCCCC(=O)NCC1CCCCc2c1c1cc(OC)ccc1n2C (configuration not stated)
32000 nM,Not Active,–,> 10000,–,–,CCC(Br)C(=O)NC1CCc2[nH]c3ccccc3c2C1 (configuration not stated)
43000 nM,–,470,44.7,–,–,COc1ccc2c(c1)c1c(n2C)CCCCC1CNC(=O)C1CC1 (configuration not stated)
62000 nM,–,305,27.5,–,–,CCC(=O)NCC1CCCc2c1c1cc(CC)ccc1n2C (configuration not stated)
